Entries after “also recorded” stand apart in the source; their conditions may differ.
Tests used:
[1] = system: stratum radiatum synapses of APP/PS1-21 and WT mice; assay: Chronic intraperitoneal treatment: electron microscopy of astrocyte coverage of synapses; format: in vivo, mouse; conditions: 3-months old, i.p. treatment
Method: This solution is then diluted to 1 μg/μl in an isotonic solution containing 1% Pluronic F-127 and 0.9% NaCl. The animals are injected daily intraperitoneally at a dose of 5 mg/kg of body mass. Sterile 0.5 ml BD MicroFine syringes with no dead volume, equipped with a 30G (0.3 mm) needle are used for the injections. The injection is started from the 14th postnatal day (appearance of the expression of the Thy1gene promoter in the hippocampus, triggering the overexpression of Aβ in the APP/PS1-21 murine model) Hippocampi were dissected and fixed with 1.7% of glutaraldehyde in 0.1 M phosphate buffer at pH 7.4 for 48 hours at room temperature. The CA1 region was dissected under a binocular magnifying glass and fixed again for 2 hours in the same solution. Samples were then washed with buffer and post-fixed with 1% of osmium tetroxide and 0.1M phosphate buffer with pH 7.2 for 1 hour at 4° C. After thorough washing with water, the cells were then stained with 1% of uranil acetate with pH 4 in water for 1 hour at 4° C. before being dehydrated by successive alcohol baths (30%-60%-90%-100%-100%-100%) and incubated with a 1:1 epon/ethanol at 100% mixture for 1 hour and several baths of fresh epoxy resin (Sigma-Aldrich, France) for 3 hours. Finally, the samples were included in a capsule filled with resin which was allowed to polymerize for 72 h at 60° C. […]

[2] = system: astrocytes of the hippocampus (stratum radiatum), TRPA1 channel; assay: Acute application on acute hippocampal slices: astrocyte calcium imaging; format: cell-based, mouse; conditions: 40 μM, APP/PS1-21 mice 1-month old
Method: Coronal sections of the hippocampus (thickness 300 μm) were prepared from APP/PS1-21 transgenic mice (1 month and 3 months old) or from WT mice from the same litter. The mice were sacrificed by decerebration and decapitation. The brain was quickly removed and sectioned in ice-cold ACSF containing (in mM) : 2.5 KCl, 7 MgCl2, 0.5 CaCl2, 1.2 NaHPO4, 25 NaHCO3, 11D-glucose and 234 sucrose bubbled with 95% of O2 and 5% of CO2 with a VT1200S vibratome (Leica, Germany). The sections containing the hippocampus were placed in ACSF containing (in mM) : 126 NaCl, 2.5 KCl, 1.2 MgCl2, 2.5 CaCl2, 1.2 NaH2PO4 bubbled with 95% of O2 and 5% of CO2 and supplemented with 1 mM of sodium pyruvate at room temperature for a recovery period.
300 μm coronal sections were transferred to a chamber allowing constant perfusion with ACSF at room temperature, bubbling with 95% of O2 and 5% of CO2 on the upright microscope tray (Eclipse E600 FN, Nikon, France) equipped with a 60× (NA 1.0) water immersion objective and infrared interference contrast optical systems with a CCD camera (Optronis VX45, Germany). […] The signals were amplified by Axopatch 200B, sampled by a Digidata 1440A interface and recorded by the pClamp8 software (Molecular Devices, USA). […] The input resistance was calculated by measuring the current in response to a 10 mV pulse of 80 ms duration near the end of the voltage command.

APP/PS1-21 and WT mice = assay: Chronic intraperitoneal treatment: Barnes maze; format: in vivo, mouse; conditions: 6-months old
Method: This solution is then diluted to 1 μg/μl in an isotonic solution containing 1% Pluronic F-127 and 0.9% NaCl. The animals are injected daily intraperitoneally at a dose of 5 mg/kg of body mass. Sterile 0.5 ml BD MicroFine syringes with no dead volume, equipped with a 30G (0.3 mm) needle are used for the injections. The injection is started from the 14th postnatal day (appearance of the expression of the Thy1gene promoter in the hippocampus, triggering the overexpression of Aβ in the APP/PS1-21 murine model) The mice were placed in the center of a well-lit open platform (BioSeb, diameter 120 cm). The platform includes 20 holes (diameter 5 cm) with an escape box (target) attached below any of the holes. On the first day of training, the mice were first placed in the middle of the platform and gently guided to the target after 5 minutes of free exploration. Once the mice entered the escape box, they remained there for 1 minute before being returned to their cage. During the 3 days of the training/acquisition phase, the mice performed 3 trials per day with an interval between trials of 20 minutes. The mice had 180 seconds to find the escape box or were gently guided thereto. On day 4 (test day), the escape box was removed and the mice were allowed to freely explore the maze for 60 seconds. The time taken to reach the target (latency) and the exploration time of the target area (target hole±1) were analyzed. All data were recorded and analyzed with EthoVision XT9 (Noldus). The working memory is perhaps one of the most studied aspects of memory impairment in Alzheimer's disease. The inventors administered daily the TRPA1 channel specific inhibitor (HC030031) or the carrier intraperitoneally (5 mg/kg of body mass) from the 14th postnatal day up to 6 months in APP/PS1-21 and wild-type WT mice.

[3] = system: trigeminal neuropathy-like pain behaviors; conditions: mice, subcutaneous (100 μg/10 μl) or intragastric (300 mg/kg); Trevisan et al. 2016; cited from earlier work
rodent forms of TRPA1 = conditions: McNamara et al. 2007, Eid et al. 2008, read-out: CI50 (the source's name); cited from earlier work
[4] = system: models of neuropathic and inflammatory pain; conditions: rats, oral administration 100 mg/kg; Eid et al. 2008; cited from earlier work
[5] = APP/PS1-21 mice, 5 mg/kg i.p. daily from 14th postnatal day
[6] = WT control mice, chronic treatment

CC(C)c1ccc(NC(=O)Cn2cnc3c2c(=O)n(C)c(=O)n3C)cc1 [HC030031, 2-(1,3-Dimethyl-2,6-dioxo-1,2,3,6-tetrahydro-7H-purin-7-yl)-N-(4-isopropylphenyl)acetamide]
synapses enveloped (astrocyte coverage of stratum radiatum synapses) ([1]; APP/PS1 mice): 64.0±1.5% | synapses enveloped (astrocyte coating) ([1]; WT mice): 62.7±2.7% | astrocyte calcium hyperactivity [2]: fully restored; also recorded: inhibited | area under the curve for latency to reach the escape box (learning phase, working memory) (APP/PS1-21 and WT mice; [5]): 595.9±77.2 | first latency to the target area during the trial (reference memory) (APP/PS1-21 and WT mice; [5]): 18.5 ± 4.2 s | reference memory performance (APP/PS1-21 and WT mice; [6]): no impact | working memory performance (APP/PS1-21 and WT mice; [6]): no impact | trigeminal neuropathy-like pain behaviors [3]: abolished | IC50 (rodent forms of TRPA1): 7.6 µM | analgesic effect [4]: significant analgesic effect

Reference: patent publication US20230372350A1, “ASTROCYTIC TRPA1 CHANNEL INHIBITION AS A NOVEL NEUROPROTECTIVE THERAPEUTIC TARGET IN THE PRODROMAL PHASES OF ALZHEIMER'S DISEASE” (priority 2020, published 2023)
